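Grown in 96-well plates, cells were treated for 48 hours with each compound at five concentrations. Insufficient inhibition: endpoint recorded as highest concentration tested. The concentration for 50% growth inhibition is given as GI50. TGI marks complete inhibition of growth.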
Assays:
Test in all cases: growth of human tumour cells (NCI), 48 h
786-0 renal = system: 786-0 renal
A498 renal = system: A498 renal
A549 NSCLC = system: A549 NSCLC
ACHN renal = system: ACHN renal
CCRF-CEM leukemia = system: CCRF-CEM leukemia
COLO 205 colon = system: COLO 205 colon
DLD-1 colon = system: DLD-1 colon
DMS 273 small cell lung = system: DMS 273 small cell lung
HCC-2998 colon = system: HCC-2998 colon
HCT-116 colon = system: HCT-116 colon
HL-60(TB) leukemia = system: HL-60(TB) leukemia
HOP-18 NSCLC = system: HOP-18 NSCLC
HOP-92 NSCLC = system: HOP-92 NSCLC
HT29 colon = system: HT29 colon
IGROV1 ovarian = system: IGROV1 ovarian
K-562 leukemia = system: K-562 leukemia
KM12 colon = system: KM12 colon
KM20L2 colon = system: KM20L2 colon
LOX IMVI melanoma = system: LOX IMVI melanoma
LXFL 529 NSCLC = system: LXFL 529 NSCLC
M14 melanoma = system: M14 melanoma
M19-MEL melanoma = system: M19-MEL melanoma
MOLT-4 leukemia = system: MOLT-4 leukemia
NCI-H23 lung = system: NCI-H23 lung
NCI-H460 lung = system: NCI-H460 lung
NCI-H522 lung = system: NCI-H522 lung
OVCAR-3 ovarian = system: OVCAR-3 ovarian
OVCAR-4 ovarian = system: OVCAR-4 ovarian
OVCAR-5 ovarian = system: OVCAR-5 ovarian
RPMI-8226 leukemia = system: RPMI-8226 leukemia
RXF 393 renal = system: RXF 393 renal
SF-268 CNS = system: SF-268 CNS
SF-295 CNS = system: SF-295 CNS
SF-539 CNS = system: SF-539 CNS
SK-MEL-2 melanoma = system: SK-MEL-2 melanoma
SK-MEL-28 melanoma = system: SK-MEL-28 melanoma
SK-MEL-5 melanoma = system: SK-MEL-5 melanoma
SK-OV-3 ovarian = system: SK-OV-3 ovarian
SN12C renal = system: SN12C renal
SNB-19 CNS = system: SNB-19 CNS
SNB-75 CNS = system: SNB-75 CNS
SNB-78 CNS = system: SNB-78 CNS
SR leukemia = system: SR leukemia
SW-620 colon = system: SW-620 colon
U251 CNS = system: U251 CNS
UACC-257 melanoma = system: UACC-257 melanoma
UACC-62 melanoma = system: UACC-62 melanoma
UO-31 renal = system: UO-31 renal
XF 498 CNS = system: XF 498 CNS
CAKI-1 renal = system: CAKI-1 renal
DMS 114 small cell lung = system: DMS 114 small cell lung
EKVX NSCLC = system: EKVX NSCLC
HCT-15 colon = system: HCT-15 colon
MALME-3M melanoma = system: MALME-3M melanoma
OVCAR-8 ovarian = system: OVCAR-8 ovarian
TK-10 renal = system: TK-10 renal

For `CC(C)C(=O)/C=C/c1ccccc1`, the TGI (786-0 renal) was over 100 µM, the TGI (A498 renal) was over 100 µM and the TGI (A549 NSCLC) was over 100 µM. The TGI (ACHN renal) was over 100 µM, the TGI (CCRF-CEM leukemia) was 67.5 µM and the TGI (COLO 205 colon) was over 100 µM. It also gave a TGI (DLD-1 colon) of over 100 µM, a TGI (DMS 273 small cell lung) of over 100 µM and a TGI (HCC-2998 colon) of over 100 µM. For the same compound, the TGI (HCT-116 colon) was over 100 µM, the TGI (HL-60(TB) leukemia) was over 100 µM and the TGI (HOP-18 NSCLC) was over 100 µM. For the same compound, the TGI (HOP-92 NSCLC) was over 100 µM, the TGI (HT29 colon) was over 100 µM and the TGI (IGROV1 ovarian) was over 100 µM. For the same compound, the TGI (K-562 leukemia) was over 100 µM, the TGI (KM12 colon) was over 100 µM and the TGI (KM20L2 colon) was over 100 µM. The TGI (LOX IMVI melanoma) was over 100 µM, the TGI (LXFL 529 NSCLC) was over 100 µM and the TGI (M14 melanoma) was over 100 µM. For the same compound, the TGI (M19-MEL melanoma) was over 100 µM, the TGI (MOLT-4 leukemia) was over 100 µM and the TGI (NCI-H23 lung) was over 100 µM. The TGI (NCI-H460 lung) was over 100 µM, the TGI (NCI-H522 lung) was over 100 µM and the TGI (OVCAR-3 ovarian) was over 100 µM. For the same compound, the TGI (OVCAR-4 ovarian) was over 100 µM, the TGI (OVCAR-5 ovarian) was over 100 µM and the TGI (RPMI-8226 leukemia) was over 100 µM. The TGI (RXF 393 renal) was over 100 µM, the TGI (SF-268 CNS) was over 100 µM and the TGI (SF-295 CNS) was over 100 µM. It also gave a TGI (SF-539 CNS) of over 100 µM, a TGI (SK-MEL-2 melanoma) of over 100 µM and a TGI (SK-MEL-28 melanoma) of over 100 µM. For the same compound, the TGI (SK-MEL-5 melanoma) was over 100 µM, the TGI (SK-OV-3 ovarian) was over 100 µM and the TGI (SN12C renal) was over 100 µM. It also gave a TGI (SNB-19 CNS) of over 100 µM, a TGI (SNB-75 CNS) of over 100 µM and a TGI (SNB-78 CNS) of over 100 µM. For the same compound, the TGI (SR leukemia) was over 100 µM, the TGI (SW-620 colon) was over 100 µM and the TGI (U251 CNS) was over 100 µM. It also gave a TGI (UACC-257 melanoma) of over 100 µM, a TGI (UACC-62 melanoma) of over 100 µM and a TGI (UO-31 renal) of over 100 µM. It also gave a TGI (XF 498 CNS) of over 100 µM.
For `[Cl][Bi]([O]c1ccccn1)[O]c1ccccn1`, the GI50 (786-0 renal) was over 100 µM, the TGI (786-0 renal) was over 100 µM and the GI50 (A549 NSCLC) was over 100 µM. For the same compound, the TGI (A549 NSCLC) was over 100 µM, the GI50 (ACHN renal) was over 100 µM and the TGI (ACHN renal) was over 100 µM. The GI50 (CAKI-1 renal) was over 100 µM, the TGI (CAKI-1 renal) was over 100 µM and the GI50 (COLO 205 colon) was over 100 µM. The TGI (COLO 205 colon) was over 100 µM, the GI50 (DLD-1 colon) was over 100 µM and the TGI (DLD-1 colon) was over 100 µM. For the same compound, the GI50 (DMS 114 small cell lung) was 57 µM, the TGI (DMS 114 small cell lung) was over 100 µM and the GI50 (DMS 273 small cell lung) was over 100 µM. For the same compound, the TGI (DMS 273 small cell lung) was over 100 µM, the GI50 (EKVX NSCLC) was over 100 µM and the TGI (EKVX NSCLC) was over 100 µM. The GI50 (HCC-2998 colon) was over 100 µM, the TGI (HCC-2998 colon) was over 100 µM and the GI50 (HCT-116 colon) was over 100 µM. The TGI (HCT-116 colon) was over 100 µM, the GI50 (HCT-15 colon) was over 100 µM and the TGI (HCT-15 colon) was over 100 µM. The GI50 (IGROV1 ovarian) was over 100 µM, the TGI (IGROV1 ovarian) was over 100 µM and the GI50 (KM12 colon) was over 100 µM. The TGI (KM12 colon) was over 100 µM, the GI50 (KM20L2 colon) was over 100 µM and the TGI (KM20L2 colon) was over 100 µM. The GI50 (LOX IMVI melanoma) was over 100 µM, the TGI (LOX IMVI melanoma) was over 100 µM and the GI50 (M14 melanoma) was over 100 µM. The TGI (M14 melanoma) was over 100 µM, the GI50 (MALME-3M melanoma) was over 100 µM and the TGI (MALME-3M melanoma) was over 100 µM. For the same compound, the GI50 (NCI-H23 lung) was over 100 µM, the TGI (NCI-H23 lung) was over 100 µM and the GI50 (OVCAR-3 ovarian) was over 100 µM. For the same compound, the TGI (OVCAR-3 ovarian) was over 100 µM, the GI50 (OVCAR-4 ovarian) was over 100 µM and the TGI (OVCAR-4 ovarian) was over 100 µM. The GI50 (OVCAR-5 ovarian) was over 100 µM, the TGI (OVCAR-5 ovarian) was over 100 µM and the GI50 (OVCAR-8 ovarian) was over 100 µM. It also gave a TGI (OVCAR-8 ovarian) of over 100 µM, a GI50 (RXF 393 renal) of over 100 µM and a TGI (RXF 393 renal) of over 100 µM. For the same compound, the GI50 (SF-268 CNS) was over 100 µM, the TGI (SF-268 CNS) was over 100 µM and the GI50 (SF-295 CNS) was over 100 µM. It also gave a TGI (SF-295 CNS) of over 100 µM, a GI50 (SF-539 CNS) of over 100 µM and a TGI (SF-539 CNS) of over 100 µM. It also gave a GI50 (SK-MEL-2 melanoma) of over 100 µM, a TGI (SK-MEL-2 melanoma) of over 100 µM and a GI50 (SK-MEL-28 melanoma) of over 100 µM. It also gave a TGI (SK-MEL-28 melanoma) of over 100 µM, a GI50 (SK-MEL-5 melanoma) of 40.2 µM and a TGI (SK-MEL-5 melanoma) of over 100 µM. It also gave a GI50 (SK-OV-3 ovarian) of over 100 µM, a TGI (SK-OV-3 ovarian) of over 100 µM and a GI50 (SN12C renal) of over 100 µM. It also gave a TGI (SN12C renal) of over 100 µM, a GI50 (SNB-19 CNS) of over 100 µM and a TGI (SNB-19 CNS) of over 100 µM. The GI50 (SNB-75 CNS) was over 100 µM, the TGI (SNB-75 CNS) was over 100 µM and the GI50 (SR leukemia) was over 100 µM. It also gave a TGI (SR leukemia) of over 100 µM, a GI50 (SW-620 colon) of over 100 µM and a TGI (SW-620 colon) of over 100 µM. The GI50 (TK-10 renal) was over 100 µM, the TGI (TK-10 renal) was over 100 µM and the GI50 (U251 CNS) was over 100 µM. For the same compound, the TGI (U251 CNS) was over 100 µM, the GI50 (UACC-257 melanoma) was over 100 µM and the TGI (UACC-257 melanoma) was over 100 µM. It also gave a GI50 (UACC-62 melanoma) of over 100 µM, a TGI (UACC-62 melanoma) of over 100 µM and a GI50 (UO-31 renal) of over 100 µM. The TGI (UO-31 renal) was over 100 µM, the GI50 (XF 498 CNS) was over 100 µM and the TGI (XF 498 CNS) was over 100 µM.

Reference: PubChem BioAssay (NCI)
